Experimental data taken from ChEMBL document CHEMBL1124044, “4-N-hydroxy-L-2,4-diaminobutyric acid. A strong inhibitor of glutamine synthetase” (J Med Chem, 1988).

Key:
[1] = system: Glutamine synthetase (Ovis aries); settings: at 0.2 mM
[2] = system: Glutamine synthetase (Ovis aries); settings: at 0.5 mM
[3] = system: Glutamine synthetase (Ovis aries); test: Percent inhibition was measured on Sheep Brain […] at 0.1 mM concentration
[4] = system: Glutamine synthetase (Glycine max); settings: at 0.2 mM
[5] = system: Glutamine synthetase (Glycine max); settings: at 0.1 mM
[6] = system: Glutamine synthetase (Glycine max); settings: at 0.5 mM
[7] = system: Glutamine synthetase (Glycine max); test: Percent inhibition was measured on Soybean Glutamine synthetase at 0.2 mM concentration
[8] = system: Glutamine synthetase (Ovis aries); test: Percent inhibition was measured on Sheep Brain Glutamine synthetase at 0.2 mM concentration
[9] = system: Glutamine synthetase (Ovis aries); test: Percent inhibition was measured on Sheep Brain Glutamine synthetase at 0.5 mM concentration
[10] = system: Glutamine synthetase (Glycine max); test: Percent inhibition was measured on Soybean Glutamine synthetase at 0.5 mM concentration
[11] = system: Glutamine synthetase (Ovis aries); test: Percent inhibition was measured on Sheep Brain Glutamine synthetase at 0.1 mM concentration

| inhibition [1] [%] | inhibition [2] [%] | inhibition [3] [%] | inhibition [4] [%] | inhibition [6] [%] | SMILES | inhibition [5] [%] | inhibition [7] [%] | inhibition [8] [%] | inhibition [9] [%] | inhibition [10] [%] | inhibition [11] [%] |
| --- | --- | --- | --- | --- | --- | --- | --- | --- | --- | --- | --- |
| 4 | 8 | 0 | 0 | 0 | CNO | 0 |  |  |  |  |  |
|  |  |  |  |  | NCC(O)CCC(N)C(=O)O (configuration not stated) | 5 | 9 | 11 | 22 | 21 | 5 |
